From paper PMC9965906, “Discovery and Development Strategies for SARS-CoV-2 NSP3 Macrodomain Inhibitors” (Pathogens, 2023)
Several values for one entry are separate records, joined by “and”; a condition that tells them apart may be missing. Identical values can stand only once.

How the values were obtained:
MacroD1 = conditions: MacroD1, AlphaScreen-based assay format; cited from earlier work
SARS-CoV-2 NSP3 Mac1 = SARS-CoV-2 NSP3 Mac1 (Severe acute respiratory syndrome coronavirus 2, UniProt P0DTD1); assay: biochemical; assay type: binding; conditions: for inhibition at 125 µM / IC50 in µM / Inhibition at top concentration of 125 µM (%) / IC50: MIDAS hit compounds and analogues; for inhibition at 125 µM: read-out: Inhibition at top concentration of 125 µM (%); for IC50 in µM / IC50: top concentration 125 µM, 8-point 1:1 dilution; for IC50: read-out: IC50; for NSP3 Mac1 inhibition at 50 µM (%) / inhibition at 50 µM: FDA-approved compound library primary screen, single shot
NSP3 Mac1 [1] = conditions: recognition by NSP3 Mac1; cited from earlier work
NSP3 Mac1 [2] = system: NSP3 Mac1; design: method as in PMID 35598780; conditions: similar set-up using the peptide, AlphaScreen; cited from earlier work
[3] = BioAscent virtual screening hit compounds, duplicate
[4] = MIDAS compound library primary screen

| Compound | inhibition at 125 µM (SARS-CoV-2 NSP3 Mac1) [%] | IC50 in µM (SARS-CoV-2 NSP3 Mac1; duplicate) | other results |
| --- | --- | --- | --- |
| C[CH2][Hg][S]c1ccccc1C(=O)[O-].[Na+] [Thimerosal, reference compound] | – | – | IC50 (MacroD1): 5.2 µM |
| CC(C)n1ncc2c(C(=O)N3CCNC(=O)C3(C)C)cc(-c3cccs3)nc21 [IAL-MD0075, CC(C)N1N=CC=2C(=CC(=NC12)C3=CC=CS3)C(=O)N4CCNC(=O)C4(C)C] | 30.9 | Not measurable | – |
| COc1cc(/C=C2\Oc3cc(O)ccc3C2=O)ccc1O [BCC0002149, COc1cc(/C=C2\Oc3cc(O)ccc3C2=O)ccc1O] | – | – | inhibition at 25 µM (SARS-CoV-2 NSP3 Mac1; [3]): 47.2% |
| COc1ccc(-c2cc(C(=O)Nc3cccc(OCC(N)=O)c3)c3ccccc3n2)cc1 [IAL-MD0034, COC=1C=CC(=CC1)C=2C=C(C(=O)NC=3C=CC=C(OCC(=O)N)C3)C=4C=CC=CC4N2] | 8.9 | Not measurable | – |
| O=c1ccsn1-c1ccc(F)c(Cl)c1 [BCC0125028, O=c1ccsn1-c1ccc(F)c(Cl)c1] | – | – | inhibition at 25 µM (SARS-CoV-2 NSP3 Mac1; [3]): 57.5% |
| COc1ccc(NC(=O)c2cc(-c3ccc(C)cc3)nc3onc(C)c23)cc1 [IAL-MD0037, COC=1C=CC(NC(=O)C=2C=C(N=C3ON=C(C)C23)C=4C=CC(C)=CC4)=CC1] | 9.3 | Not measurable | – |
| Cn1ccc2c(-c3ccc(C(=O)N4CCOCC4)o3)ccnc21 [IAL-MD0131, O=C(C1=CC=C(C2=C3C(N(C)C=C3)=NC=C2)O1)N4CCOCC4] | – | – | Inhibition at top concentration of 125 µM (%) (SARS-CoV-2 NSP3 Mac1): Not measurable due to compound precipitation; IC50 (SARS-CoV-2 NSP3 Mac1; duplicate): 4.9 µM |
| O=C(c1ccc(NCC2CC2)nc1)N1CCC(c2c[nH]c3ncccc23)CC1 [IAL-MD0110, O=C(N1CCC(CC1)C2=CNC=3N=CC=CC23)C=4C=CC(NCC5CC5)=NC4] | 7.8 | Not measurable | – |
| CO/N=C(\C(=O)N[C@@H]1C(=O)N2C(C(=O)[O-])=C(C[N+]3(C)CCCC3)CS[C@H]12)c1csc(N)n1.Cl [Cefepime hydrochloride, reference compound] | – | – | NSP3 Mac1 inhibition at 50 µM (%) (SARS-CoV-2 NSP3 Mac1): 42.1% |
| Cn1ccc2c(-c3ccc(C(=O)N4CCCC4)cn3)ccnc21 [IAL-MD0142, O=C(C1=CN=C(C2=C3C(N(C)C=C3)=NC=C2)C=C1)N4CCCC4] | 37.9 | Not measurable | – |
| N[C@@H](C(=O)N[C@@H]1C(=O)N2C(C(=O)O)=C(Cl)CS[C@H]12)c1ccccc1 [cefaclor, reference compound] | – | – | inhibitory activity in FDA-approved library screen (SARS-CoV-2 NSP3 Mac1; primary screen at the set screening concentration): could yet not measure any inhibitory activity |
| Oc1c(Cl)cc(Cl)c(Cl)c1Cc1c(O)c(Cl)cc(Cl)c1Cl [Hexachlorophene, reference compound] | – | – | inhibition at 50 µM (SARS-CoV-2 NSP3 Mac1): 85.5% |
| CC(=O)N1CCN(C(=O)c2ccc(-c3ncnc4[nH]ccc34)cc2)CC1 [IAL-MD0143, O=C(C1=CC=C(C2=C3C(NC=C3)=NC=N2)C=C1)N4CCN(C(C)=O)CC4] | 71.9 | – | IC50 (SARS-CoV-2 NSP3 Mac1; duplicate): 45 µM |
| CCn1ncc2c(C(=O)N3CCNC(=O)C3)cc(-c3cccs3)nc21 [IAL-MD0040, CCN1N=CC=2C(=CC(=NC12)C3=CC=CS3)C(=O)N4CCNC(=O)C4] | 81 | – | inhibition at 25 µM (SARS-CoV-2 NSP3 Mac1; [4]): 51%; IC50 (SARS-CoV-2 NSP3 Mac1; duplicate): 21 µM and 20.6 µM |
| COc1ccc(-c2cc(C(=O)O)c3cc(NC(C)=O)ccc3n2)cc1 [IAL-MD0031, COC=1C=CC(=CC1)C=2C=C(C(=O)O)C=3C=C(NC(=O)C)C=CC3N2] | 81.3 | – | inhibition at 25 µM (SARS-CoV-2 NSP3 Mac1; [4]): 48%; IC50 (SARS-CoV-2 NSP3 Mac1; duplicate): 19 µM and 19.3 µM |
| CC(C)n1ncc2c(C(=O)N3CCC(C)(O)CC3)cc(-c3cccs3)nc21 [IAL-MD0107, CC(C)N1N=CC=2C(=CC(=NC12)C3=CC=CS3)C(=O)N4CCC(C)(O)CC4] | 40.5 | Not measurable | – |
| CC(C)n1ncc2c(C(=O)N3CCCC3)cc(-c3cccs3)nc21 [IAL-MD0083, CC(C)N1N=CC=2C(=CC(=NC12)C3=CC=CS3)C(=O)N4CCCC4] | 47.4 | Not measurable | – |
| Nc1nc(/C(=C/CC(=O)O)C(=O)N[C@@H]2C(=O)N3C(C(=O)O)=CCS[C@H]23)cs1 [Ceftibuten, reference compound] | – | – | inhibition at 50 µM (SARS-CoV-2 NSP3 Mac1): 71.6% |
| CC(CNC(=O)c1cc(-c2cccs2)nc2c1cnn2C(C)C)N1CCCCC1 (stereo not shown) [IAL-MD0108, CC(C)N1N=CC=2C(=CC(=NC12)C3=CC=CS3)C(=O)NCC(C)N4CCCCC4] | 60.5 | – | IC50 (SARS-CoV-2 NSP3 Mac1; duplicate): 68 µM and 67.8 µM |
| CONC(=O)c1cc(-c2ccc(OC)cc2)nc2ccccc12 [IAL-MD0024, CONC(=O)C=1C=C(N=C2C=CC=CC12)C=3C=CC(OC)=CC3] | 60.3 | – | IC50 (SARS-CoV-2 NSP3 Mac1; duplicate): 68 µM |
| O=C(O)CCCC[C@@H]1SC[C@@H]2NC(=O)N[C@@H]21 [Biotin, reference compound] | – | – | NSP3 Mac1 inhibition at 50 µM (%) (SARS-CoV-2 NSP3 Mac1): 107%; inhibition at 50 µM (SARS-CoV-2 NSP3 Mac1): 108% |
| CCn1ncc2c(C(=O)Nc3cccc(NC(C)=O)c3)cc(-c3ccccc3)nc21 [IAL-MD0025, CCN1N=CC=2C(=CC(=NC12)C=3C=CC=CC3)C(=O)NC=4C=CC=C(NC(=O)C)C4] | – | Not measurable | Inhibition at top concentration of 125 µM (%) (SARS-CoV-2 NSP3 Mac1): Not measurable |
| CCn1ncc2c(C(=O)NCC(=O)N(C)C)cc(-c3cccs3)nc21 [IAL-MD0074, CCN1N=CC=2C(=CC(=NC12)C3=CC=CS3)C(=O)NCC(=O)N(C)C] | 77.7 | – | IC50 (SARS-CoV-2 NSP3 Mac1; duplicate): 25.3 µM |
| CC(=O)Nc1ccc(C=Cc2cc(C(=O)O)c3cc(C)ccc3n2)cc1 [IAL-MD0059, CC(=O)NC=1C=CC(C=CC=2C=C(C(=O)O)C=3C=C(C)C=CC3N2)=CC1] | 63 | – | IC50 (SARS-CoV-2 NSP3 Mac1; duplicate): 22.8 µM |
| COc1ccc(-c2cc(C(=O)Nc3cccnc3)c3ccccc3n2)cc1 [IAL-MD0100, COC=1C=CC(=CC1)C=2C=C(C(=O)NC=3C=CC=NC3)C=4C=CC=CC4N2] | 15.9 | Not measurable | – |
| Chlorophyllide Cu complex Na salt [reference compound] | – | – | NSP3 Mac1 inhibition at 50 µM (%) (SARS-CoV-2 NSP3 Mac1): 106.7%; NSP3 Mac1 inhibition at 50 µM (%) (SARS-CoV-2 NSP3 Mac1; listed as chlorophyllide–copper complex): 106% |
| CCn1ncc2c(C(=O)N3CCC(C(O)c4ccccc4)CC3)cc(-c3cccs3)nc21 (stereo not shown) [IAL-MD0056, CCN1N=CC=2C(=CC(=NC12)C3=CC=CS3)C(=O)N4CCC(CC4)C(O)C=5C=CC=CC5] | 7 | Not measurable | – |
| COc1ccc(-c2cc(C(=O)O)c3ccc(OC)cc3n2)cc1 [IAL-MD0030, COC=1C=CC(=CC1)C=2C=C(C(=O)O)C=3C=CC(OC)=CC3N2] | 44.7 | Not measurable | – |
| CCn1ncc2c(C(=O)NCc3ccc(OC)nc3)cc(-c3cccs3)nc21 [IAL-MD0117, CCN1N=CC=2C(=CC(=NC12)C3=CC=CS3)C(=O)NCC=4C=CC(OC)=NC4] | 9.7 | Not measurable | – |
| Nc1ncnc2c1ncn2[C@@H]1O[C@H](COP(=O)(O)OP(=O)(O)OC[C@H]2OC(O)[C@H](O)[C@@H]2O)[C@@H](O)[C@H]1O (stereo partly shown) [ADP-ribose] | – | – | Kd (NSP3 Mac1 [1]): 13 µM; IC50 (NSP3 Mac1 [2]): 1.5 µM |
